# According to patent US20060058243A1, “Methods and compositions for treating diabetes mellitis” (priority 2002, published 2006):
# Key:
# 3T3-L1 adipocytes = assay: Glucose transport stimulatory (GTS) activity, 2-deoxy-D-[3H]glucose uptake; format: cell-based; conditions: 3T3-L1 adipocytes, FIG. 2
# Description: (§1) PGG, either as a mixture or as single isomer (α or β), is added to either adipocytes (A) or preadipocytes (B). GTS activity (A) and AD activity (B) of PGG are measured by ^3H-glucose uptake. GLUT4 is not expressed in preadipocytes, so glucose uptake can be used as an indirect measurement of adipocyte differentiation.
# Glucose uptake activity in cells may be analyzed by measuring the uptake of 2-deoxy-D-[^3H] glucose using a standard assay. Confluent 3T3-L1 adipocytes grown in 12-well plates are washed twice with serum-free DMEM and incubated with 1 mL of the same medium at 37° C. for 2 h. The cells are washed 3 times with Krebs-Ringer-Hepes (KRP) buffer and incubated with 0.9 mL KRP buffer at 37° C. for 30 min. […] Glucose uptake is initiated by addition of 0.1 mL KRP buffer and 37 MBq/L 2-deoxy-D-[^3H] glucose and 1 mmol/L glucose as final concentrations. After 10 min, glucose uptake is terminated by washing the cells 3 times with cold PBS. The cells are lysed with 0.7 mL of 1% Triton X-100 at 37° C. for 20 min. The radioactivity retained by the cell lysates is determined by a scintillation counter. The dosage that induces the maximal glucose uptake can be selected among the experimental samples.
# 3T3-L1 adipocytes were purchased from ATCC, and maintained and passed as preadipocytes in DMEM supplemented with 10% calf serum in a 37° C. incubator with 10% CO2 as required by the cells. The cells were induced to differentiate into adipocytes by addition of MDI induction cocktail as described in Liu, F., Kim, J., Li, Y., Liu, X., Li, J. & Chen, X. (2001) An extract of Lagerstroemia speciosa L. has insulin-like glucose uptake-stimulatory and adipocyte differentiation-inhibitory activities in 3T3-L1 cells. J. Nutrition 131:2242-224, which is specifically incorporated herein by reference. Varying amounts of α-PGG and β-PGG were then added to the medium and the amount of glucose taken up by control and treated cells determined using a standard glucose uptake assay, as described in Liu et al. As shown in FIG. 2A chemically synthesized and plant derived β-PGG have similar glucose transport stimulatory (GTS). The GTS activity of α-PGG is consistently 10-20% higher than that of β-PGG (FIG. 2).
# Confluent 3T3-L1 adipocytes grown in 12-well plates were washed twice with serum-free DMEM and incubated with 1 mL of the same medium at 37° C. for 2 h. The cells were washed 3 times with Krebs-Ringer-Hepes (KRP) buffer and incubated with 0.9 mL KRP buffer at 37° C. for 30 min. Compounds listed in the table below were then added at 20-40 μM (final concentration?) and adipocytes were incubated at 37° C. for 15 min. Glucose uptake was initiated by addition of 0.1 mL KRP buffer and 37 MBq/L 2-deoxy-D-[3H] glucose and 1 mmol/L glucose as final concentrations. After 10 min, glucose uptake was terminated by washing the cells 3 times with cold PBS. The cells were lysed with 0.7 mL of 1% Triton X-100 at 37° C. for 20 min. The radioactivity retained by the cell lysates is determined by a scintillation counter.
# 3T3-L1 preadipocytes [1] = assay: Adipocyte differentiation (AD) of preadipocytes, MDI induction, Oil Red O staining and glucose uptake; format: cell-based; conditions: about 10 days, 30 μM PGG, FIG. 8
# Description: as §1
# Ten days after induction, the cells were stained with Oil Red 0 and photographed at magnification X200. Only those cells that contain fat vesicles (triglyceride) can be stained.
# After about 10 days MDI induces differentiation, which is clearly visible as the change from fibroblast-like preadipcytes to round-shaped, fat vesicle-containing adipocytes.
# 3T3-L1 adipocytes were purchased from ATCC, and maintained and passed as preadipocytes in DMEM supplemented with 10% calf serum in a 37° C. incubator with 10% CO2 as required by the cells. To test the effect of PGG on adipogenesis, the preadipocytes were incubated either with a differentiation-induction cocktail comprised of 3-isobutyl-1-methylxanthine, […], a cocktail comprised of 3-isobutyl-1-methylxanthine, dexamethasone (MD) and PGG; or with MDI plus PGG.
# In order to study the mechanism by which PGG inhibits 3T3-L1 preadipocyte differentiation, we used gene expression studies. This strategy allows us to determine whether PGG specifically acts on genes that participate in the differentiation process. […] After about 10 days MDI induces differentiation, which is clearly visible as the change from fibroblast-like preadipcytes to round-shaped, fat vesicle-containing adipocytes (FIG. 8 middle).
# 3T3-L1 preadipocytes [2] = assay: Clonal expansion / cell proliferation assay by LDH activity; format: cell-based
# Description: Preadipocytes were induced to undergo clonal expansion by MDI, or α-PGG, or β-PGG in the presence of MDI. 24 or 48 hrs after induction, the media was removed and the cells were lysed. The […] (LDH) activity of the cell lysates was measured by LDH kit. Cell growth media were also collected and their LDH activity from dead cells was also measured (not shown on this graph). LDH activity is a constant per cell in a given cell type, the LDH activity measured is proportional to the number of cells in the samples.
# A cell proliferation assay was used to determine if PGG inhibits adipocyte differentiation by blocking clonal expansion. […] The basis for the difference between the anomers in clonal expansion and differentiation is not known.
# db/db mice = assay: Blood glucose in fasting diabetic db/db mice after oral dose; format: in vivo; conditions: single oral dose 25 mg/kg body weight, versus vehicle, P<0.01, FIG. 11A
# Description: (§2) FIG. 11. Effect of PGG on blood glucose levels in db/db and ob/ob mice. Various doses of α-PGG were orally delivered without glucose to db/db mice(A) or with glucose to ob/ob mice (B) mice. At different times post the delivery, glucose was determined in samples from tail blood.
# Male db/db (leptin receptor deficient) mice of 8 weeks of age may be used to determine in vivo dosages for simulating glucose uptake The mice are divided into three to four groups depending upon how many dosages are analyzed. Ten μl of a test solution with pre-determined concentrations of the test gallotannin composition is orally administered to the test mice. The negative control mice receive the same amount of water. After the administration, blood is collected from the mouse tail at various times post oral administration. The blood glucose level of a mouse at a given time post administration is measured by applying six μl of blood on a One Touch Basic Complete Diabetes Monitoring System (from Lifescan). The effective dosage range and the optimal dosage can be determined by comparison of the reduction of blood glucose levels by different dosages relative to the glucose level of the negative (water) control group.
# The reduction of the glucose level is about 15-20% depending on the time post α-pGG administration (P<0.01, FIG. 11A).
# ob/ob mice [3] = assay: Glucose tolerance test in ob/ob mice; format: in vivo
# Description: as §2
# FIG. 12. PGG protects ob/ob mice from hyperglycemia immediately after glucose challenge and hypoglycemia several days after the challenge. At various time points after the glucose challenge, blood glucose levels were measured in tail blood.
# To determine if α-PGG is also effective in improving glucose tolerance in diabetic and obese mice, a glucose tolerance test was performed using ob/ob mice. Glucose or glucose plus α-PGG were orally delivered into male ob/ob mice, and blood glucose levels were measured at various times post glucose/PGG administration.
# A single high does of glucose in ob/ob mice can be fatal, either because of the very high levels of blood glucose levels […] after the glucose challenge or because of the abnormally low glucose levels 2-3 days after the glucose challenge. […] Although the protection mechanisms are unknown at this time, it is very likely that α-PGG protected the ob/ob mice not only by its GTS activity, but also some other activity such as AD-related activity.
# ob/ob mice [4] = assay: Plasma insulin levels in ob/ob mice after intraperitoneal injection; format: in vivo; conditions: single intraperitoneal injection
# Description: Diabetic and obese ob/ob mice were injected intraperitoneally with either water or α-PGG. Plasma from each mouse was isolated at various times post injection and was measured for insulin levels.
# [5] = in the presence of MDI, FIG. 10
smiles,measurement,setting,value
"O=C(OC[C@H]1O[C@H](OC(=O)c2cc(O)c(O)c(O)c2)[C@H](OC(=O)c2cc(O)c(O)c(O)c2)[C@@H](OC(=O)c2cc(O)c(O)c(O)c2)[C@@H]1OC(=O)c1cc(O)c(O)c(O)c1)c1cc(O)c(O)c(O)c1 [α-PGG, 1,2,3,4,6-penta-O-galloyl-α-D-glucose]",GTS activity higher than that of β-PGG,3T3-L1 adipocytes,10-20%
same,differentiation of preadipocytes treated with MDI plus compound,3T3-L1 preadipocytes [1],abolishes the differentiation
same,cell-killing compared to MDI induced cells,3T3-L1 preadipocytes [2]; data not shown,without significantly increased cell-killing
same,first round of clonal expansion,3T3-L1 preadipocytes [2]; [5],not inhibited
same,second round of clonal expansion,3T3-L1 preadipocytes [2]; [5],partially inhibited
same,reduction of the blood glucose level,db/db mice,15-20%
same,protection from extremely low glucose levels after glucose challenge,"ob/ob mice [3]; 2-5 days after challenge, FIG. 12",protected these mice from suffering extremely low glucose levels
same,time after treatment at which improved blood glucose levels could still be observed,"ob/ob mice [3]; ob/ob mice, oral",≥ 24 h
same,blood glucose levels compared to glucose alone,"ob/ob mice [3]; oral glucose plus α-PGG, P<0.001, FIG. 11B",significantly lower blood glucose levels
same,plasma insulin levels versus water,ob/ob mice [4],significantly lower plasma insulin levels
